Paper PMC5840146, “Structure-Activity Relationship Analysis of 3-Phenylcoumarin-Based Monoamine Oxidase B Inhibitors” (Frontiers in Chemistry, 2018)
Like-named read-outs stand apart in the source and are kept apart here.

Key:
MAO-B [1] = target: T1, MAO-B (Homo sapiens, UniProt P27338); assay: MAO-B inhibition of prior 3-phenylcoumarins (literature data); type: biochemical; details: LiPE = pIC50 - QPlogPo/w, literature IC50
T1 construct: purchased Sigma-Aldrich
T1 sequence (P27338 1-520): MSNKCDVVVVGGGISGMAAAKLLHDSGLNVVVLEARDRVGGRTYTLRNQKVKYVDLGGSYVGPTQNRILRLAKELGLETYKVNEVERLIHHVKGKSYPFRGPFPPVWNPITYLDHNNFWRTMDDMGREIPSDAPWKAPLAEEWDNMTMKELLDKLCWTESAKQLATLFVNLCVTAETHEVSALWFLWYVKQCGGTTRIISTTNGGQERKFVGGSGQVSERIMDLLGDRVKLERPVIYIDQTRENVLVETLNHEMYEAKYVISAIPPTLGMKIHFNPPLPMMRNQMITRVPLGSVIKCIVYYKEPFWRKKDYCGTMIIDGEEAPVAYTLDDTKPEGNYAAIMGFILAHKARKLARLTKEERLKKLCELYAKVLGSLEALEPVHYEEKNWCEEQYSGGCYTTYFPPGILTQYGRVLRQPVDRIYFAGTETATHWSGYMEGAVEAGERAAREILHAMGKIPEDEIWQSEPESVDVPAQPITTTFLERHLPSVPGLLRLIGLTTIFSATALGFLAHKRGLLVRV

MAO-B [2] = target: T1, MAO-B; details: cited from earlier work; for pIC50: MAO-B; for IC50: read-out: MAO-B inhibition IC50
[3] = from literature IC50 ref Matos et al., 2011a
[4] = prior 3-phenylcoumarins ref Matos et al., 2011a
[5] = from literature IC50 ref Matos et al., 2009, 2011a
[6] = prior 3-phenylcoumarins ref Matos et al., 2009, 2011a
[7] = from literature IC50 ref Serra et al., 2012
[8] = prior 3-phenylcoumarins ref Serra et al., 2012
[9] = from literature IC50 ref Matos et al., 2010
[10] = prior 3-phenylcoumarins ref Matos et al., 2010
[11] = from literature IC50 ref Matos et al., 2011b
[12] = prior 3-phenylcoumarins ref Matos et al., 2011b

| SMILES | LiPE (MAO-B [1]) | pIC50 (MAO-B [2]; [3]) | IC50 (MAO-B [2]; [4]) | also measured |
| --- | --- | --- | --- | --- |
| CC(=O)COc1ccc2oc(=O)c(-c3ccc(C)cc3)cc2c1 [CHEMBL1835226] | 2.32 | 5.26 | 5520 nM |  |
| COc1cc(-c2cc3cc(C)ccc3oc2=O)cc(OC)c1OC [CHEMBL1783716] | 3.18 |  |  | pIC50 (MAO-B [2]; [5]): 6.79; IC50 (MAO-B [2]; [6]): 161 nM |
| Cc1ccc2oc(=O)c(-c3ccccc3O)cc2c1 [CHEMBL1835327] | 4.08 | 6.92 | 120 nM |  |
| Cc1ccc2oc(=O)c(-c3ccccc3)cc2c1 [CHEMBL1783714] | 3.08 |  |  | pIC50 (MAO-B [2]; from literature IC50 ref Matos et al., 2009, 2011a, Viña et al., 2012b): 6.55; IC50 (MAO-B [2]; prior 3-phenylcoumarins ref Matos et al., 2009, 2011a, Viña et al., 2012b): 284 nM |
| Cc1ccc(-c2cc3cc(O)ccc3oc2=O)cc1 [CHEMBL1835225] | 4.42 | 7.17 | 67.1 nM |  |
| COc1ccc(-c2c(O)c3cc(C)ccc3oc2=O)cc1 [CHEMBL1934673] | 1.53 |  |  | pIC50 (MAO-B [2]; [7]): 4.49; IC50 (MAO-B [2]; [8]): 32000 nM |
| COc1ccc(-c2c(O)c3cc(C)ccc3oc2=O)cc1Cl [CHEMBL1934676] | 0.88 |  |  | pIC50 (MAO-B [2]; [7]): 4.37; IC50 (MAO-B [2]; [8]): 42700 nM |
| COc1ccc(-c2c(O)c3cc(Cl)ccc3oc2=O)cc1Cl [CHEMBL1934677] | 1.88 |  |  | pIC50 (MAO-B [2]; [7]): 5.55; IC50 (MAO-B [2]; [8]): 2790 nM |
| Cc1cccc(-c2cc3cc(C)ccc3oc2=O)c1 [CHEMBL1835229] | 4.09 | 7.82 | 15 nM |  |
| Cc1ccc2oc(=O)c(-c3ccccc3Br)cc2c1 [CHEMBL1221929] | 1.46 |  |  | pIC50 (MAO-B [2]; [9]): 5.37; IC50 (MAO-B [2]; [10]): 4300 nM |
| COc1ccc(-c2c(O)c3ccccc3oc2=O)cc1 [CHEMBL1917495] | 1.49 |  |  | pIC50 (MAO-B [2]; [7]): 4.16; IC50 (MAO-B [2]; [8]): 69600 nM |
| O=c1oc2ccccc2cc1-c1ccccc1 [CHEMBL510349] | 1.47 |  |  | pIC50 (MAO-B [2]; from literature IC50 ref Viña et al., 2012b): 4.93; IC50 (MAO-B [2]; prior 3-phenylcoumarins ref Viña et al., 2012b): 11800 nM |
| Cc1ccc(-c2cc3cc(OC4CCCC4)ccc3oc2=O)cc1 [CHEMBL1835227] | 0.14 | 4.84 | 14500 nM |  |
| CC(=O)COc1cccc(-c2cc3cc(C)ccc3oc2=O)c1 [CHEMBL1835328] | 3.80 | 6.74 | 180 nM |  |
| Cc1ccc2oc(=O)c(-c3cccc(O)c3)cc2c1 [CHEMBL1835326] | 3.44 | 6.19 | 650 nM |  |

Continued, in another order:

| LiPE (MAO-B [1]) | SMILES | pIC50 (MAO-B [2]; [3]) | IC50 (MAO-B [2]; [4]) | also measured |
| --- | --- | --- | --- | --- |
| 5.04 | COc1ccc(-c2cc3cc(C)ccc3oc2=O)cc1OC [CHEMBL1835230] | 8.56 | 2.73 nM |  |
| 5.64 | COc1cccc(-c2cc3cc(C)ccc3oc2=O)c1 [CHEMBL570731] | 9.10 | 0.8 nM |  |
| 4.30 | COc1ccc2oc(=O)c(-c3cccc(C)c3)cc2c1 [CHEMBL1835223] | 7.77 | 17.1 nM |  |
| 1.02 | COc1cc(OC)cc(-c2cc3cc(C)cc(Br)c3oc2=O)c1 [CHEMBL1221981] |  |  | pIC50 (MAO-B [2]; [9]): 5.15; IC50 (MAO-B [2]; [10]): 7120 nM |
| 5.09 | COc1ccc(-c2cc3cc(Br)cc(OC)c3oc2=O)cc1 [CHEMBL1777845] |  |  | pIC50 (MAO-B [2]; [11]): 8.87; IC50 (MAO-B [2]; [12]): 1.35 nM |
| 1.42 | COc1ccc(-c2cc3cc(C)cc(Br)c3oc2=O)cc1 [CHEMBL1221980] |  |  | pIC50 (MAO-B [2]; [9]): 5.49; IC50 (MAO-B [2]; [10]): 3230 nM |
| 0.20 | COc1cc(OC)c(Br)c(-c2cc3cc(C)ccc3oc2=O)c1 [CHEMBL1835233] | 4.27 | 54000 nM |  |
| 4.41 | COc1ccc(-c2cc3cc(C)ccc3oc2=O)cc1 [CHEMBL572233] |  |  | pIC50 (MAO-B [2]; [5]): 7.88; IC50 (MAO-B [2]; [6]): 13.1 nM |
| 3.35 | COc1cc(Br)cc2cc(-c3ccccc3)c(=O)oc12 [CHEMBL1777814] |  |  | pIC50 (MAO-B [2]; [11]): 7.08; IC50 (MAO-B [2]; [12]): 83.5 nM |
| 5.05 | COc1ccc(-c2cc3cc(C)ccc3oc2=O)cc1Br [CHEMBL1835231] | 9.13 | 0.74 nM |  |
| 4.41 | COc1cc(-c2cc3cc(C)ccc3oc2=O)ccc1Br [CHEMBL1835232] | 8.49 | 3.25 nM |  |
| 4.52 | COc1cc(OC)cc(-c2cc3cc(C)ccc3oc2=O)c1 [CHEMBL1783715] |  |  | pIC50 (MAO-B [2]; [5]): 8.05; IC50 (MAO-B [2]; [6]): 8.98 nM |
| 1.45 | O=c1oc2c(O)cc(Br)cc2cc1-c1ccccc1 [CHEMBL1777847] |  |  | pIC50 (MAO-B [2]; [11]): 4.51; IC50 (MAO-B [2]; [12]): 30900 nM |
| 1.09 | COc1cc(-c2cc3cc(C)cc(Br)c3oc2=O)cc(OC)c1OC [CHEMBL1221982] |  |  | pIC50 (MAO-B [2]; [9]): 5.31; IC50 (MAO-B [2]; [10]): 4890 nM |
| 0.95 | Cc1cc(Br)c2oc(=O)c(-c3ccccc3)cc2c1 [CHEMBL1221930] |  |  | pIC50 (MAO-B [2]; [9]): 4.96; IC50 (MAO-B [2]; [10]): 11000 nM |
| 2.46 | O=c1oc2c(O)cc(Br)cc2cc1-c1ccc(O)cc1 [CHEMBL1777849] |  |  | pIC50 (MAO-B [2]; [11]): 4.77; IC50 (MAO-B [2]; [12]): 16900 nM |
| 5.35 | COc1ccc2oc(=O)c(-c3ccc(C)cc3)cc2c1 [CHEMBL1835224] | 8.82 | 1.52 nM |  |
